Measured values: ChEMBL document CHEMBL3885881, “DrugMatrix”

Organism: Rattus norvegicus
Experiment: DrugMatrix - Regimen: Daily Repeat
Assay type: toxicity, organism-based, Sprague-Dawley
Set-up: regimen Daily Repeat, gender Male, age 6-8 weeks
Conditions: in vivo, po, route oral GAVAGE, vehicle .5 % CMC; for ABSOLUTE BASOPHIL / ABSOLUTE EOSINOPHIL / ABSOLUTE LYMPHOCYTE / ABSOLUTE MONOCYTE / ABSOLUTE SEGMENTED NEUTROPHIL / BASOPHIL / EOSINOPHIL / ERYTHROCYTE COUNT / HEMATOCRIT / HEMOGLOBIN / LEUKOCYTE COUNT / LYMPHOCYTE / MEAN CORPUSCULAR HEMOGLOBIN / MEAN CORPUSCULAR HEMOGLOBIN CONCENTRATION / MEAN CORPUSCULAR VOLUME / MONOCYTE / NEUTROPHIL / NUCLEATED RED BLOOD CELLS / PLATELET COUNT: tissue Blood; for ALANINE AMINOTRANSFERASE / ALBUMIN / ALKALINE PHOSPHATASE / ASPARTATE AMINOTRANSFERASE / BLOOD UREA NITROGEN / CARBON DIOXIDE / CHLORIDE / CHOLESTEROL / CREATINE PHOSPHOKINASE / CREATININE / GLUCOSE / LACTATE DEHYDROGENASE / LIPASE / PHOSPHORUS / POTASSIUM / SODIUM / TOTAL BILIRUBIN / TOTAL PROTEIN / URIC ACID: tissue Plasma
[1] = 30 mg/kg, 120 h, dose level Low, time 5 day
[2] = 2000 mg/kg, 72 h, dose level High, time 3 day
[3] = 2000 mg/kg, 120 h, dose level High, time 5 day

SMILES: CCOc1cc(N)c(Cl)cc1C(=O)NCC1CN(Cc2ccc(F)cc2)CCO1 (centres undefined) [MOSAPRIDE]
- ABSOLUTE BASOPHIL [1]: 0 CELLS/uL
- ABSOLUTE EOSINOPHIL [1]: 184 CELLS/uL
- ABSOLUTE LYMPHOCYTE [1]: 14085.33 CELLS/uL
- ABSOLUTE MONOCYTE [1]: 124 CELLS/uL
- ABSOLUTE SEGMENTED NEUTROPHIL [1]: 940 CELLS/uL
- BASOPHIL [1]: 0%
- EOSINOPHIL [1]: 1.33%
- ERYTHROCYTE COUNT [1]: 5.58 x10E6/uL
- HEMATOCRIT [1]: 33.97%
- HEMOGLOBIN [1]: 13.4 G/DL
- LEUKOCYTE COUNT [1]: 15.33 x10E3/uL
- LYMPHOCYTE [1]: 91.33%
- MEAN CORPUSCULAR HEMOGLOBIN [1]: 24.07 pg
- MEAN CORPUSCULAR HEMOGLOBIN CONCENTRATION [1]: 39.43 G/DL
- MEAN CORPUSCULAR VOLUME [1]: 61 fL
- MONOCYTE [1]: 1%
- NEUTROPHIL [1]: 6.33%
- NUCLEATED RED BLOOD CELLS [1]: 0 /100WBC
- PLATELET COUNT [1]: 1230 x10E3/uL
- ALANINE AMINOTRANSFERASE [1]: 47 u/L
- ALBUMIN [1]: 4.27 G/DL
- ALKALINE PHOSPHATASE [1]: 395.67 u/L
- ASPARTATE AMINOTRANSFERASE [1]: 103 u/L
- BLOOD UREA NITROGEN [1]: 14.67 mg/dL
- CARBON DIOXIDE [1]: 21.33 mmol/L
- CHLORIDE [1]: 104.33 MEQ/L
- CHOLESTEROL [1]: 72.33 mg/dL
- CREATINE PHOSPHOKINASE [1]: 763 u/L
- CREATININE [1]: 0.22 mg/dL
- GLUCOSE [1]: 150.33 mg/dL
- LACTATE DEHYDROGENASE [1]: 650.33 u/L
- LIPASE [1]: 9.67 u/L
- PHOSPHORUS [1]: 11.1 mg/dL
- POTASSIUM [1]: 5.84 MEQ/L
- SODIUM [1]: 144.4 MEQ/L
- TOTAL BILIRUBIN [1]: 0.23 mg/dL
- TOTAL PROTEIN [1]: 5.97 G/DL
- URIC ACID [1]: 1.73 mg/dL
- ABSOLUTE BASOPHIL [2]: 0 CELLS/uL
- ABSOLUTE EOSINOPHIL [2]: 82 CELLS/uL
- ABSOLUTE LYMPHOCYTE [2]: 11383.33 CELLS/uL
- ABSOLUTE MONOCYTE [2]: 248.67 CELLS/uL
- ABSOLUTE SEGMENTED NEUTROPHIL [2]: 719.33 CELLS/uL
- BASOPHIL [2]: 0%
- EOSINOPHIL [2]: 0.67%
- ERYTHROCYTE COUNT [2]: 6.66 x10E6/uL
- HEMATOCRIT [2]: 42.47%
- HEMOGLOBIN [2]: 16.67 G/DL
- LEUKOCYTE COUNT [2]: 12.43 x10E3/uL
- LYMPHOCYTE [2]: 91.33%
- MEAN CORPUSCULAR HEMOGLOBIN [2]: 25.07 pg
- MEAN CORPUSCULAR HEMOGLOBIN CONCENTRATION [2]: 39.27 G/DL
- MEAN CORPUSCULAR VOLUME [2]: 63.83 fL
- MONOCYTE [2]: 2%
- NEUTROPHIL [2]: 6%
- NUCLEATED RED BLOOD CELLS [2]: 0 /100WBC
- PLATELET COUNT [2]: 1265 x10E3/uL
- ALANINE AMINOTRANSFERASE [2]: 92.67 u/L
- ALBUMIN [2]: 4.43 G/DL
- ALKALINE PHOSPHATASE [2]: 485 u/L
- ASPARTATE AMINOTRANSFERASE [2]: 204 u/L
- BLOOD UREA NITROGEN [2]: 18 mg/dL
- CARBON DIOXIDE [2]: 19 mmol/L
- CHLORIDE [2]: 95 MEQ/L
- CHOLESTEROL [2]: 234.67 mg/dL
- CREATINE PHOSPHOKINASE [2]: 2551 u/L
- CREATININE [2]: 0.29 mg/dL
- GLUCOSE [2]: 119.67 mg/dL
- LACTATE DEHYDROGENASE [2]: 1110.67 u/L
- LIPASE [2]: 14.67 u/L
- PHOSPHORUS [2]: 14.47 mg/dL
- POTASSIUM [2]: 7.66 MEQ/L
- SODIUM [2]: 141.13 MEQ/L
- TOTAL BILIRUBIN [2]: 0.47 mg/dL
- TOTAL PROTEIN [2]: 6.5 G/DL
- URIC ACID [2]: 2.7 mg/dL
- ABSOLUTE BASOPHIL [3]: 0 CELLS/uL
- ABSOLUTE EOSINOPHIL [3]: 63.33 CELLS/uL
- ABSOLUTE LYMPHOCYTE [3]: 17542.67 CELLS/uL
- ABSOLUTE MONOCYTE [3]: 192.67 CELLS/uL
- ABSOLUTE SEGMENTED NEUTROPHIL [3]: 1468 CELLS/uL
- BASOPHIL [3]: 0%
- EOSINOPHIL [3]: 0.33%
- ERYTHROCYTE COUNT [3]: 6.35 x10E6/uL
- HEMATOCRIT [3]: 38.03%
- HEMOGLOBIN [3]: 14.87 G/DL
- LEUKOCYTE COUNT [3]: 19.27 x10E3/uL
- LYMPHOCYTE [3]: 91%
- MEAN CORPUSCULAR HEMOGLOBIN [3]: 23.37 pg
- MEAN CORPUSCULAR HEMOGLOBIN CONCENTRATION [3]: 39.1 G/DL
- MEAN CORPUSCULAR VOLUME [3]: 59.8 fL
- MONOCYTE [3]: 1%
- NEUTROPHIL [3]: 7.67%
- NUCLEATED RED BLOOD CELLS [3]: 0 /100WBC
- PLATELET COUNT [3]: 1370.33 x10E3/uL
- ALANINE AMINOTRANSFERASE [3]: 101.67 u/L
- ALBUMIN [3]: 4.07 G/DL
- ALKALINE PHOSPHATASE [3]: 465 u/L
- ASPARTATE AMINOTRANSFERASE [3]: 89.67 u/L
- BLOOD UREA NITROGEN [3]: 18.33 mg/dL
- CARBON DIOXIDE [3]: 25.67 mmol/L
- CHLORIDE [3]: 100 MEQ/L
- CHOLESTEROL [3]: 227.67 mg/dL
- CREATINE PHOSPHOKINASE [3]: 489.33 u/L
- CREATININE [3]: 0.22 mg/dL
- GLUCOSE [3]: 124.33 mg/dL
- LACTATE DEHYDROGENASE [3]: 134 u/L
- LIPASE [3]: 12.67 u/L
- PHOSPHORUS [3]: 12.77 mg/dL
- POTASSIUM [3]: 6.56 MEQ/L
- SODIUM [3]: 145.37 MEQ/L
- TOTAL BILIRUBIN [3]: 0.2 mg/dL
- TOTAL PROTEIN [3]: 6.2 G/DL
- URIC ACID [3]: 1.77 mg/dL
